In paper PMC12040169 (PLOS Biology, 2025):

Test: in vitro
Settings: human, hela cells, % viability

| Structure (SMILES) | viability at 28.5 h, 10 µM |
| --- | --- |
| COc1ccccc1-c1cc([C@H]2CN3CC[C@H]2C[C@@H]3CNC(=O)c2ccco2)nc(C)n1 [CBK289119] | 105% |
| CC1CCN(CCNC(=O)CCc2nc3ccc(Cl)cc3[nH]2)CC1 [CBK281599] | 88.7% |
| O=C(O)CCC(=O)N1N=C2C(=Cc3ccco3)CCCC2C1c1ccco1 (stereo not drawn) [CBK296069] | 97.9% |
| Cc1cc(N2CCN(C(=O)CCc3ccco3)CC2)nc(C(C)C)n1 [CBK305367] | 106% |
| O=C(CCC(=O)c1ccc2c(c1)OCCO2)OCC(=O)c1ccc(Cl)c(Cl)c1 [CBK264825] | 87.5% |
| Cc1nccn1CC(=O)N1CCCC1(C)C(=O)NC1CCCC1 (stereo not drawn) [CBK281539] | 98.7% |
| O=C1C2CCCN2S(=O)(=O)c2ccccc2N1Cc1ccccc1 (stereo not drawn) [CBK284018] | 88.6% |
| CCc1cccc(C)c1NC(=O)C1C2CCC(O2)C1C(=O)O (stereo not drawn) [CBK263676] | 88.1% |
| Cn1c(N2CCCC(C(=O)NCC3CC3)C2)nc2ccccc21 (stereo not drawn) [CBK283987] | 92.6% |
| COc1cncc(-c2cc(Nc3cc(OC)c(OC)cc3C)ncn2)c1 [CBK090782] | 84.9% |
| Cc1ccc(NC(=O)c2ccncc2)c(Br)c1 [CBK058282] | 94.1% |
| O=C(NC(=S)N1CCN(CCN2C(=O)c3cccc4cccc(c34)C2=O)CC1)c1ccc2c(c1)OCO2 [CBK263577] | 82.2% |
| CSCCC(NS(=O)(=O)c1ccc(I)cc1)C(=O)O (stereo not drawn) [CBK268768] | 98.6% |
| N=C1/C(=C/c2cn(Cc3ccccc3)c3ccccc23)C(=O)N=C2SC(COc3ccccc3)=NN12 [CBK264150] | 114% |
| O=S(=O)(c1ccc(OC(F)(F)F)cc1)N1CCCCC1CO (stereo not drawn) [CBK051527] | 91.7% |
| CC1CCN(S(=O)(=O)c2cccc(C(=O)N3CCC(C(=O)O)CC3)c2)CC1 [CBK266790] | 87.4% |
| CN1CCCC(NC(=O)CCCOc2ccccc2F)C1 (stereo not drawn) [CBK282072] | 101% |
| O=[N+]([O-])c1ccc2nc(Sc3nc4ccccc4[nH]3)sc2c1 [CBK263356] | 89.8% |
| Cc1onc(-c2ccccc2)c1C(=O)Nc1ccc(N2CCNCC2)c2ccccc12 [CBK038942T] | 87% |
| Cc1nc(-c2ccccc2)sc1CNC(=O)Cc1ccccc1F [CBK092372] | 104% |
| CCOC(=O)c1ccc(NC(=S)NC(=O)c2ccc(C)c(C)c2)cc1 [CBK264004] | 89.2% |
| O=C(NC(c1ccccc1)c1ccccc1)N1CCN(Cc2ccccc2)CC1 [CBK155630] | 86.3% |
| CC1=C[C@@H](CNS(C)(=O)=O)[C@H](C(C)C)C[C@H]1CC(=O)N1CCOCC1 [CBK289050] | 89.3% |

| Structure (SMILES) | viability at 28.5 h, 10 µM |
| --- | --- |
| CCNC(=O)CN(C)S(=O)(=O)c1cc(Cl)ccc1Cl [CBK091853] | 94.1% |
| CN1C2CCC1CC(OC(=O)c1cccnc1)C2 (stereo not drawn) [CBK026000] | 100% |
| Cc1oc2c(c1C(=O)NCCSc1nncn1C)C(=O)CCC2 [CBK306589] | 92.5% |
| CC1(C)CC(NC(=O)C(=O)NCCc2ccc(Cl)cc2)CC(C)(C)N1 [CBK262363] | 83.8% |
| Nc1ncnc(Nc2cc(C(F)(F)F)cc(C(F)(F)F)c2)n1 [CBK006617] | 86.8% |
| Fc1ccc(N2CCN(c3ncnc4[nH]cnc34)CC2)cc1 [CBK287387] | 89.8% |
| CN(C)S(=O)(=O)Nc1cccc2cc[nH]c12 [CBK159505] | 92.8% |
| COc1cc(S(=O)(=O)NCc2ccc3c(c2)OCO3)c(OC)cc1Cl [CBK264972] | 97.1% |
| Cc1ccc2c(c1)OC(C)(C)CC2NS(=O)(=O)N1CCN(C)CC1 (stereo not drawn) [CBK307271] | 103% |
| O=c1c2ccccc2nc(COc2ccccc2)n1O [CBK288482] | 108% |
| O=c1cc(C(F)(F)F)c2ccc(OCc3ccc(Cl)cc3)cc2o1 [CBK058200] | 93% |
| NC(=O)c1ccccc1NC(=O)CN(c1cccc(Br)c1)S(=O)(=O)c1ccccc1 [CBK265263] | 92.1% |
| CC(C)(C)c1ccc(S(=O)(=O)N2CCN(CCC(=O)O)CC2)cc1 [CBK297089] | 103% |
| CN(C)CC1CCCCN1C(=O)[C@@H]1C[C@@H]2C=C[C@H]1C2 (stereo partly drawn) [CBK282086] | 105% |
| CCOC(=O)c1[nH]c2ccccc2c1NS(=O)(=O)c1ccc(NC(C)=O)cc1 [CBK047411] | 81.4% |
| O=c1c2ccccc2nc2n1CCN(Cc1ccccc1)CC2 [CBK284790] | 90.2% |
| CC(C)(C)c1cnc(C(=O)NC2CCCN(c3ncccn3)C2)o1 (stereo not drawn) [CBK305777] | 92.3% |
| C(=C\c1nccnc1OCc1cccs1)/c1ccccc1 [CBK106883] | 112% |
| O=S(=O)(c1ccccc1Br)N1CCOCC1 [CBK062404] | 96.9% |
| COC(=O)[C@H]1CN(C(=O)CN2CCCC2=O)C[C@@H]1c1ccccc1F [CBK283518] | 89.2% |
| COc1ncc(-c2nccnc2NCCc2ccncc2)c(OC)n1 [CBK038074] | 96.7% |
| Nc1ccccc1Sc1ncccc1C(F)(F)F [CBK093758] | 86.2% |
| CN1CCN(c2n[nH]c(N)n2)CC1 [CBK026743] | 90.5% |

| Structure (SMILES) | viability at 28.5 h, 10 µM |
| --- | --- |
| CCCNC(=O)Cn1nc(-c2cc3c(s2)CCC3)oc1=O [CBK284713] | 95.2% |
| Cn1ncc2c1CCCC2NC(=O)N(CCO)Cc1ccccc1 (stereo not drawn) [CBK306293] | 86.1% |
| COc1cc(/C=N/NC(=O)c2n[nH]c3c2CCC3)ccc1O [CBK262881] | 109% |
| c1ccc(OCCN2CCC3(C2)NCCc2[nH]ccc23)cc1 (stereo not drawn) [CBK084595T] | 90.9% |
| COc1ccc(C(C)C)cc1-c1nccnc1N1CCCN(C)CC1 [CBK036677] | 110% |
| COc1ccc(OCCNC(=O)c2cc(-c3cccnc3)cnc2N2CCOCC2)cc1 [CBK076341] | 96.2% |
| NC(=O)c1csc(-c2ccc(F)cc2F)n1 [CBK067749] | 68.6% |
| CCC(CN1CCOCC1)NC(=O)Cc1ccc2c(c1)CCC2 (stereo not drawn) [CBK282810] | 114% |
| Cc1nc(S(=O)(=O)Nc2nc(C(C)C)ns2)cn1C [CBK051323] | 107% |
| COc1ccc(S(=O)(=O)Nc2ccc(S(=O)(=O)Nc3nccs3)cc2)c([N+](=O)[O-])c1 [CBK266801] | 95.6% |
| CCN1CCN(Cc2c(O)ccc3c(=O)c(-c4ccccc4OC)c(C(F)(F)F)oc23)CC1 [CBK263692] | 87.6% |
| CN(Cc1cnn(C)c1)C(=O)C1CCCN1Cc1ccccn1 (stereo not drawn) [CBK305092] | 96% |
| CC(/C=C1\SC(=S)N(C(Cc2ccccc2)C(=O)O)C1=O)=C\c1ccccc1 (stereo not drawn) [CBK263524] | 91.7% |
| O=[N+]([O-])c1ccc(-c2ccc(/C=C/c3cc(O)c4ccccc4n3)o2)cc1 [CBK267792] | 92.1% |
| c1ccc2c(c1)nc(N1CCOCC1)n2CCN1CCOCC1 [CBK269841] | 99.6% |
| COc1ccccc1N1CCN(CCc2nnc(S)n2-c2ccccc2)CC1 [CBK262212] | 102% |
| CCN(CC)S(=O)(=O)c1ccc(Cl)c(C(=O)Oc2cccc3cccnc23)c1 [CBK263205] | 118% |
| N#C/C(=C\c1ccc(C(=O)O)cc1)C(=O)NCC1CCCO1 (stereo not drawn) [CBK263228] | 95% |
| COCc1nnc(Sc2ccc(C(F)(F)F)cn2)s1 [CBK115219] | 100% |
| c1ccc2[nH]c(SCCCCCSc3nc4ccccc4[nH]3)nc2c1 [CBK025418] | 101% |
| CCCN(Cc1ccoc1)CC1CC1 [CBK018931] | 94.6% |
| O=C(Nc1ccccc1N1CCNCC1)c1cccs1 [CBK029443T] | 95.5% |
| FC(F)(F)c1cccc(-c2cnn(-c3ccc4c(c3)OCO4)n2)c1 [CBK112664] | 89.6% |

| Structure (SMILES) | viability at 28.5 h, 10 µM |
| --- | --- |
| Cc1nc2nc(SCc3cc(=O)n4ccccc4n3)nn2c(C)c1Cc1ccccc1 [CBK294460] | 89.9% |
| O=S(=O)(NCc1cccc(F)c1)c1ccc(OC(F)(F)F)cc1 [CBK043379] | 88.5% |
| CC(C)(C)C1CCC(OC(=O)CCC(=O)Nc2nccs2)CC1 (stereo not drawn) [CBK260890] | 96.9% |
| CSCCC(=O)Nc1ccc2c(ccn2Cc2ccccc2)c1 [CBK159732] | 69.4% |
| Cc1ccc(-c2nn(CCC#N)cc2C(=O)N2CCCCC2)cc1 [CBK306119] | 89.6% |
| Cc1ccc2cc(CN(CCNC(=O)OC(C)(C)C)C(=O)NCc3ccccc3)c(=O)[nH]c2c1C [CBK132097] | 90.2% |
| O=C(O)CC(Cc1ccccc1)c1ccc(Cl)cc1 (stereo not drawn) [CBK270231] | 89.6% |
| CCOc1ccc2nc(NS(=O)(=O)c3ccc4c5c(cccc35)C(=O)N4)sc2c1 [CBK262162] | 100% |
| CCOc1cccc(-c2cn3ccnc3c(Nc3ccc(Cl)cc3)n2)c1 [CBK066505] | 92.1% |
| CN(C)CCCN[C@H]1CC[C@@H](c2ccccc2)CC1 [CBK016465] | 96.2% |
| O=c1[nH]c2c(c(=O)[nH]1)[C@H]1[C@H](O)[C@H](O)C[C@H]1[C@@H](c1ccccc1)N2 [CBK303239] | 88.1% |
| Cn1cc(C(O)CNC(=O)NCCc2csc3ccccc23)cn1 (stereo not drawn) [CBK305219] | 95.2% |
| CCC1CCCCN1Cc1c(O)ccc2c(=O)c(Oc3ccc(OC)cc3)c(C(F)(F)F)oc12 (stereo not drawn) [CBK263727] | 98.8% |
| OCCOc1cccc(-c2nnco2)c1 [CBK000033] | 98.6% |
| COc1ccc(CN2CCN(c3nccnc3OC3CCCCC3)CC2)cc1 [CBK082830T] | 115% |
| CCOC(=O)CCC(=O)n1c2ccccc2c2ccccc21 [CBK001170] | 67.2% |
| O=C(c1ccccc1)c1cc[n+](CCC[n+]2ccc(C(=O)c3ccccc3)cc2)cc1 [CBK278270B] | 91.5% |
| C/C=C/c1ccc(OCCCn2nnc3ccccc32)c(OC)c1 [CBK269271] | 86% |
| CCc1nnc2sc(-c3ccccc3Br)nn12 [CBK269533] | 67.4% |
| CNS(=O)(=O)c1cccc(C(C)NC(=O)N2CCC2)c1 (stereo not drawn) [CBK306257] | 87.1% |
| O=c1ccc(-c2ccccc2)nn1CC1CCNCC1 [CBK284203] | 98.6% |
